Test results from patent EP1304101A1, “Composition and method for use of pyridinium derivatives in cosmetic and therapeutic applications” (Torrent Pharmaceuticals Ltd, priority 2001, dated 2003).
Where “and” joins values, the source holds several entries; their conditions need not be identical. Identical values can stand only once.

Key:
[1] = Free radical scavenging activity on ABTS radical cation (absorbance at 730nm); assay type: biochemical
Protocol: This method measures the relative ability of free radical scavenging substances to scavenge the ABTS ^.+ i.e. 2,2-Azino-bis-(3-ethyl benzo thiazoline-6-sulfonate) radical cation as compared to a standard amount of standard or free radical scavengers antioxidants. Incubation of ABTS with Peroxidase (metmyoglobin) and hydrogen peroxide results in the production of radical cation ABTS^.+ . This species is blue- green in colour and can be detected at 730nm. Antioxidants or free radical scavengers in the added sample that causes suppression of the color to a degree that is proportional to their concentration.
• A. Phosphate Citrate Buffer (pH 5.0): 48.5ml of 0.1M citric acid with sufficient 0.2M disodium hydrogen phosphate to produce 100 ml. • B. Phosphate Buffer Saline (PBS): Dissolve 40.0g of NaCl, 1.0g of KCI, 1.0g of KH2PO4 and 3.05g of Na2HPO4 in 1 litre milli-Q water. Dilute 200ml of above solution to 1 litre with milli-Q water (pH 7.4-7.6). • C. 3µM stock solution of Peroxidase was prepared in phosphate buffer saline pH 7.4(PBS). • D. 1.08 mM stock solution of Hydrogen peroxide was prepared in phosphate buffer saline pH 7.4 (PBS).
1 tablet (10mg) was dissolved in phosphate citrate buffer (pH 5.0).
5.0ml of ABTS stock solution was diluted with PBS to 20 ml.
320 µg of the enzyme was dissolved in 2.5 ml of PBS.
12µl of Hydrogen Peroxide (30%w/v) was diluted to 100ml with PBS.
0.1mM of stock solution of the drug was prepared which was serially diluted in PBS to get solutions of different concentrations.
To 18ml of ABTS stock solution, 100µl of Horseradish Peroxidase stock solution was added.
As soon as 1.5 ml of hydrogen peroxide solution was added to the above solution, blue-green colour of the ABTS radicals appeared. This solution was incubated at 30°C for 30 min.
980µl of ABTS radical stock solution was added to an eppendorf tube. To it was added 100µl of various PBS solution.
980µl of ABTS radical stock solutions were added to different eppendorf tubes. To it were added 100µl of various concentrations of drug solution.
The absorbance of control and test samples was recorded immediately at 730nm taking PBS as blank.
Calculation: The percent antioxidant activity was calculated according to the formula: % Antioxidant activity = [O.D of test sample/O.D of control*100]-100.

AGE-BSA = biological target: T1, AGE-BSA (Bos taurus, UniProt P02769); assay: In-vitro AGE breaking activity by ELISA (16 weeks AGE-BSA incubated with test compound); assay type: biochemical, bovine; settings: for % Breakage: 37°C, 24 hours; for AGE breaking activity compared to PTB / potency (AGE breaking activity compared to PTB): comparison in words based on Table 2
T1 construct: Bovine serum albumin (fraction V) (BSA); from tissue
T1 sequence (P02769 25-607): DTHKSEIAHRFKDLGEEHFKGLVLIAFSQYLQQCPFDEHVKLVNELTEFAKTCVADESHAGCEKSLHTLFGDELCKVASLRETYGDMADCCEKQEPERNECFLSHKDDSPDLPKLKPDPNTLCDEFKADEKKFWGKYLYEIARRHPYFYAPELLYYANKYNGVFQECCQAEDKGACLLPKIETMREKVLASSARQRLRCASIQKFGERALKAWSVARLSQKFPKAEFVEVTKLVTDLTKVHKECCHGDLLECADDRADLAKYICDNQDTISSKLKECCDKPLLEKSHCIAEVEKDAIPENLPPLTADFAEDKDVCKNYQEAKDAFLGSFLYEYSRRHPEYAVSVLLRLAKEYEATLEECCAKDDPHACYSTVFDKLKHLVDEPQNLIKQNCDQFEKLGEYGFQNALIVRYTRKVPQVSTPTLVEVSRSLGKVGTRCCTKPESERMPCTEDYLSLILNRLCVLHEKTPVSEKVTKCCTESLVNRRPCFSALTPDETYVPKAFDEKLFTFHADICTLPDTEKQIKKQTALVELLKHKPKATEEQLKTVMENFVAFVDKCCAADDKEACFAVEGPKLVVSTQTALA
Protocol: AGE breaking activity has been confirmed by the screening procedure as mentioned below: • Materials: • Bovine serum albumin (fraction V) (BSA) • Glucose, analytical grade • Phosphate buffered saline (PBS) • Equipment: • Microplate ELISA Reader - Spectramax Plus (Molecular Devices, USA) • Microplate washer, (Bio -Tec Instruments, USA) • pH meter • Methods of experiment: Elisa (Enzyme Linked Immunosorbent Assay) 160 mg/ml of protein, bovine serum albumin, BSA and 1.6M glucose sugar were dissolved in phosphate buffered saline, PBS. Sodium azide was added at 0.02% concentration as a preservative. The solution was filtered asceptically through a 0.22 µM filter and kept for aging at 37°C for 16 weeks. After 16 weeks the solution was dialyzed against PBS, aliquoted and stored at - 20°C.
To determine the AGE breaking activity, 10 µg/ml of the 16 weeks AGE-BSA was incubated with different concentrations of the test compounds at 37°C for 24 hours and AGE breaking activity of the test compounds by ELISA was determined.
Different concentrations of 16 weeks AGE-BSA were coated on a microtitre plate as standard. Each concentration is coated in triplicates. • 2. The test samples were coated on microtitre plate at a concentration of 5 ng. to 20 ng per well in triplicates. • 3. The plate was incubated at 37°C for one hour. • 4. After incubation the plate was washed with PBST (PBS with 0.05% Tween 20). • 5. Blocking with 5% skimmed milk in PBS at 37°C for one hour was done. • 6. The plate was washed with PBST. • 7. Primary antibody against AGE-BSA was added and the plate is incubated at 37°C for one hour. • 8. The plate was washed with PBST • 9. Secondary antibody anti rabbit HRPO (Horse-Radish Per Oxidase) conjugate was added and the plate is incubated at 37°C for one hour. • 10. The plate was washed with PBST. • 11. Colour development with OPD (orthophenylenediamine dihydrochloride) and hydrogen peroxide was done. • 12. OD (optical density) at (450nm reading - 620nm reading) was measured after incubation at 37°C for 15 minutes with Microplate ELISA Reader.
The breaker activity of the compounds were determined by the following formula: % Breaker activity =(OD450-620 Control - OD450-620 Test)/(OD450-620 Control)x 100 [formula] OD450-620Control= Absorbance of 20ng AGE-BSA after incubation at 37°C for 24 hours without test compound OD450-620Test= Absorbance of 20ng AGE-BSA after incubation at 37°C for 24 hours with required concentration of test compound

SMILES | Relative Free Radical Scavenging Activity(%) on ABTS ([1]; 11.5µM) [%] | Relative Free Radical Scavenging Activity(%) on ABTS ([1]; 23.0µM) [%] | Relative Free Radical Scavenging Activity(%) on ABTS ([1]; 46.0µM) [%] | Relative Free Radical Scavenging Activity(%) on ABTS ([1]; 92.5µM) [%] | Relative Free Radical Scavenging Activity(%) on ABTS ([1]; 925µM) [%] | % Breakage (AGE-BSA; 10 mM test compound) [%] | AGE breaking activity compared to PTB (AGE-BSA) | % Breakage (AGE-BSA; 25 mM test compound) [%] | % Breakage (AGE-BSA; 5 mM test compound) [%] | Relative Free Radical Scavenging Activity(%) on ABTS ([1]; 23 µM) [%] | Relative Free Radical Scavenging Activity(%) on ABTS ([1]; 46 µM) [%] | Relative Free Radical Scavenging Activity(%) on ABTS ([1]; 11.5µM, listed as Compound No.64, 11.5 µM) | Relative Free Radical Scavenging Activity(%) on ABTS ([1]; 23.0µM, listed as Compound No.64, 23 µM) | Relative Free Radical Scavenging Activity(%) on ABTS ([1]; 46.0µM, listed as Compound No.64, 46 µM) | Relative Free Radical Scavenging Activity(%) on ABTS ([1]; 92.5µM, listed as Compound No.64, 92.5 µM) | potency (AGE breaking activity compared to PTB) (AGE-BSA) | % Breakage (AGE-BSA; 2.5 mM test compound) [%] | % Breakage (AGE-BSA; 1 mM test compound) [%]
CCOC(=O)C[n+]1cccc(C(=O)NNc2ccccn2)c1.[Br-] [Compound 4, 1-(2-ethoxy-2-oxoethyl) -3-(2-(2-pyridyl) hydrazinocarbonyl) pyridinium bromide] | 58.2 | 64.3 | 69.3 | 98.6 | 100 | 30 | superior |  |  |  |  |  |  |  |  |  |  | 
COCCOC(=O)c1ccc[n+](CC(=O)c2ccc(Cl)cc2Cl)c1 [Compound 22, 1-(2-(2', 4'-dichlorophenyl)-2-oxoethyl)-3-(2(methoxy)ethyloxycarbonyl) pyridinium bromide] | 27.9 | 50.9 | 69.3 | 79.7 | 100 | 13 |  | 41 |  |  |  |  |  |  |  |  |  | 
COCCNC(=O)c1ccc[n+](CC(=O)c2ccc(Cl)cc2Cl)c1.[Br-] [Compound 38, 1-(2', 4'-dichlorophenyl-2-oxoethyl)-3-(2-methoxyethylaminocarbonyl)-pyridinium bromide] | 47.2 | 54.8 | 71.0 | 89.5 | 100 |  |  |  | 17.66 |  |  |  |  |  |  |  |  | 
CS(=O)(=O)NNC(=O)c1ccc[n+](CC(=O)c2cccs2)c1.[Cl-] [Compound 45, 1-(2-thien-2'-yl-2-oxoethyl)-3-(methanesulfonyl hydrazinocarbonyl) pyridinium chloride] | 53.9 | 56.2 | 78.7 | 99.8 | 100 | 17.53 |  |  |  |  |  |  |  |  |  |  |  | 
CC(C)S(=O)(=O)NNC(=O)c1ccc[n+](CC(=O)c2cccs2)c1 [Compound 50, 1-(2-thien-2'-yl-2-oxoethyl)-3-(isopropylsulfonyl hydrazinocarbonyl) pyridinium bromide] | 3.30 | 23.06 | 54.95 | 89.31 |  | 31.45 | superior |  |  |  |  |  |  |  |  |  |  | 
CS(=O)(=O)NNC(=O)c1ccc[n+](CC(=O)N2CCC(Cc3ccccc3)CC2)c1.[Cl-] [Compound 51, 1-(2-(4-benzylpiperidin-1-yl)-2-oxoethyl)-3-(methanesulfonyl hydrazinocarbonyl) pyridinium chloride] | 0.00 | 21.64 | 52.82 | 83.94 |  | 20.94 |  |  |  |  |  |  |  |  |  |  |  | 
CS(=O)(=O)NNC(=O)c1ccc[n+](CC(=O)c2ccc(Cl)s2)c1.[Br-] [Compound 55, 1-(2-(5-chlorothien-2-yl)-2-oxoethyl)-3-(methanesulfonyl hydrazinocarbonyl) pyridinium bromide] | 46.47 | 84.97 | 99.50 | 99.93 |  | 40.85 |  |  |  |  |  |  |  |  |  |  |  | 
O=C(NNC(=O)c1ccc[n+](CC(=O)c2cc([N+](=O)[O-])cs2)c1)c1ccc[n+](CC(=O)c2cc([N+](=O)[O-])cs2)c1 [Compound 56, N, N'-bis [3-carbonyl-1-(2-(4-nitrothien-2-yl)-2-oxoethyl)pyridinium] hydrazine dichloride] | 43.0 |  |  | 97.7 | 100 | 75.92 |  |  |  | 57.2 | 71.6 |  |  |  |  |  |  | 
CS(=O)(=O)NNC(=O)c1ccc[n+](CC(=O)c2cc([N+](=O)[O-])cs2)c1.[Br-] [Compound 64, 1-(2-(4-nitrothien-2-yl)-2-oxoethyl)-3-(methanesulfonyl hydrazinocarbonyl) pyridinium bromide] |  |  |  |  | 100 | 60.94 | superior |  |  |  |  | 41.8% and 26.01% | 55.7% and 57.39% | 72.2% and 99.30% | 99.0% and 99.62% | significantly much higher |  | 
O=C(C[n+]1cccc(C(=O)NNc2ccccc2)c1)Nc1ccccc1.[Cl-] [Compound 65, 1-(2-phenylamino-2-oxoethyl)-3-(phenyl hydrazinocarbonyl) pyridinium chloride] | 27.67 | 59.20 | 94.14 | 100.00 |  |  | superior |  |  |  |  |  |  |  |  | significantly much higher | 68.35 | 
CS(=O)(=O)NNC(=O)c1ccc[n+](CC(=O)c2ccc([N+](=O)[O-])s2)c1 [Compound 67, 1-2-(5-nitro-thien-2-yl)-2-oxoethyl)-3-(methanesulfonyl hydrazino carbonyl) pyridinium chloride] | 13.11 | 50.70 | 97.46 | 99.43 |  |  | superior |  |  |  |  |  |  |  |  | significantly much higher |  | 42.01
O=C(NNS(=O)(=O)C(F)(F)F)c1ccc[n+](CC(=O)c2cccs2)c1 [Compound 68, 1-(2-thien-2'-yl-2-oxoethyl)-3-(trifluoromethanesulfonyl hydrazinocarbonyl) - pyridinium bromide] | 38.47 | 43.54 | 89.32 | 95.07 |  | 92.64 | superior |  |  |  |  |  |  |  |  | significantly much higher |  | 
O=C(NCCO)c1ccc[n+](CC(=O)c2cccs2)c1 [Compound 90, 1-(2-Thien-2'-yl-2-oxoethyl)-3-((2-hydroxyethyl)aminocarbonyl) pyridinium bromide] | 47.8 | 58.8 | 78.2 | 99.5 | 100 | 50 |  |  |  |  |  |  |  |  |  |  |  | 
